Test results as given in ChEMBL document CHEMBL5500424, “New Strategies for Responding to SARS-CoV-2: The Present and Future of Dual-Target Drugs” (J Med Chem, 2024).

Columns and labels:
[1] = Inhibition of SARS-CoV-2 nsp16 (1 to 298 residues) expressed in Escherichia coli BL21(DE3)RIL cells using RNA and [3H]SAM as substrate incubated for 1 hrs by SPA-based assay; parameters: species or system Severe acute respiratory syndrome coronavirus 2
[2] = Inhibition of N-terminal 6His-tagged SARS-CoV nsp14 N7-methyltransferase activity expressed in Escherichia coli using GpppAC4 synthetic RNA and [3H]-SAM as substrate incubated for 30 mins in presence of SAM by Liquid scintillation analysis; parameters: species or system Severe acute respiratory syndrome-related coronavirus
SARS-CoV-2 [3] = experiment: Antiviral activity against SARS CoV-2 USA-WA1/2020 infected in African green monkey Vero E6 cells assessed as reduction in viral plaque formation incubated for 3 days by plaque reduction neutralization assay; assay type: functional, organism-based; details: Severe acute respiratory syndrome coronavirus 2, USA-WA1/2020, Vero C1008, 72 h
SARS-CoV-2 [4] = experiment: microbe, parasite or virus in culture; details: Severe acute respiratory syndrome coronavirus 2, Vero, 24 h
[5] = molecular target: T1, Replicase polyprotein 1ab (Severe acute respiratory syndrome coronavirus 2, UniProt P0DTD1); experiment: Inhibition of C-terminal His-tagged SARS-CoV-2 PLpro BetaCoV/Wuhan/WIV04/2019 expressed in Escherichia coli BL21(DE3) using ISG-AMC substrate incubated for 3 hrs by FRET analysis
[6] = molecular target: T1, Replicase polyprotein 1ab; experiment: Inhibition of SARS-CoV-2 main protease by FRET assay
[7] = molecular target: T1, Replicase polyprotein 1ab; experiment: Inhibition of recombinant SARS-CoV-2 Main protease by FRET analysis
Furin = Furin (Homo sapiens, UniProt P09958); experiment: Inhibition of furin (unknown origin)
Sequence of Furin (P09958 whole entry): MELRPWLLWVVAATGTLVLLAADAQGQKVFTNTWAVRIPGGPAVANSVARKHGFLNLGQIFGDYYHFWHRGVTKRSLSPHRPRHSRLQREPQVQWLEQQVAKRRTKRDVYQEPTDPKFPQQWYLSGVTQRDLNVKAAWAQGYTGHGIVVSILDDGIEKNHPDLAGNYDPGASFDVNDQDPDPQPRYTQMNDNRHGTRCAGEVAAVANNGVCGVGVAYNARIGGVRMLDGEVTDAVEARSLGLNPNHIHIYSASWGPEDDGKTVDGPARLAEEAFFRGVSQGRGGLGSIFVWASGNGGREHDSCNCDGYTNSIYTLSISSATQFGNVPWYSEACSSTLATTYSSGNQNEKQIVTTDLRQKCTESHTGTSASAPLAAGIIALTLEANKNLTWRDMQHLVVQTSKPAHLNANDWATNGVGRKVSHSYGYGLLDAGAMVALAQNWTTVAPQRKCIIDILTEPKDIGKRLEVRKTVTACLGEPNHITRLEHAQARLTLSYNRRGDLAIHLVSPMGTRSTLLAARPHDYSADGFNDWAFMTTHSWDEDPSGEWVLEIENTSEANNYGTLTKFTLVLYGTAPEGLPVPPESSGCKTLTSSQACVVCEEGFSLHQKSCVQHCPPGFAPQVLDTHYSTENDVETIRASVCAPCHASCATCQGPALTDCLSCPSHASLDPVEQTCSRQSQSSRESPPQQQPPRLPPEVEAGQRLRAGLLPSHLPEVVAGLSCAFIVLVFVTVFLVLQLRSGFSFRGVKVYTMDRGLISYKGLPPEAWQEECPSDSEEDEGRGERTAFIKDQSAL

SARS-CoV-2 [8] = experiment: Antiviral activity against SARS-CoV-2 infected in African green monkey Vero E6 cells assessed as inhibition of virus growth; assay type: functional, organism-based; details: Severe acute respiratory syndrome coronavirus 2, Vero C1008
[9] = molecular target: T1, Replicase polyprotein 1ab; experiment: Inhibition of recombinant SARS-CoV-2 PLpro expressed in Escherichia coli BL21 (DE3) using Arg-Leu-Arg-Gly-Gly-AMC as substrate preincubated for 5 mins followed by substrate addition measured after 6 mins by fluorescence based assay

SMILES: Nc1ncnc2c1ncn2[C@@H]1O[C@H](C[C@@H](CO)CC[C@H](N)C(=O)O)[C@@H](O)[C@H]1O
- IC50 [1]: 3400 nM
- IC50 [2]: 190 nM

SMILES: N#Cc1cn([C@@H]2O[C@H](CSCC[C@H](N)C(=O)O)[C@@H](O)[C@H]2O)c2ncnc(N)c12
- IC50 [1]: 1200 nM
- IC50 [2]: 70 nM

SMILES: CCCCCC/C=C\CCCCCCCc1cccc(O)c1C(=O)O [GINGKOLIC ACID]
- EC50 (SARS-CoV-2 [3]): 8300 nM

SMILES: N=C(N)Nc1ccc(C(=O)Oc2ccc3cc(C(=N)N)ccc3c2)cc1 [NAFAMOSTAT]
- EC50 (SARS-CoV-2 [4]): 10 nM

SMILES: CCCCCCCCCCCCCCCc1cccc(O)c1C(=O)O [ANACARDIC ACID]
- EC50 (SARS-CoV-2 [3]): 9000 nM

SMILES: CCOC(=O)/C=C/[C@H](C[C@@H]1CCNC1=O)NC(=O)[C@H](Cc1ccccc1)NC(=O)[C@@H](Cc1ccc(F)cc1)NC(=O)OC(C)(C)C
- IC50 [5]: 60 nM
- IC50 [6]: 1800 nM

SMILES: O=C(OC[C@H]1O[C@@H](OC(=O)c2cc(O)c(O)c(OC(=O)c3cc(O)c(O)c(O)c3)c2)[C@H](OC(=O)c2cc(O)c(O)c(OC(=O)c3cc(O)c(O)c(O)c3)c2)[C@@H](OC(=O)c2cc(O)c(O)c(OC(=O)c3cc(O)c(O)c(O)c3)c2)[C@@H]1OC(=O)c1cc(O)c(O)c(OC(=O)c2cc(O)c(O)c(O)c2)c1)c1cc(O)c(O)c(OC(=O)c2cc(O)c(O)c(O)c2)c1 [TANNIC ACID]
- IC50 [7]: 13200 nM

SMILES: N=C(N)c1ccc(/N=N/Nc2ccc(C(=N)N)cc2)cc1 [DIMINAZENE]
- IC50 (Furin): 580 nM

SMILES: CCOC(=O)/C=C/[C@H](C[C@@H]1CCNC1=O)NC(=O)[C@H](Cc1ccccc1)NC(=O)[C@H](N)Cc1ccccc1
- IC50 [5]: 60 nM

SMILES: CC(C)[C@H](NC(=O)[C@H](CCCNC(=N)N)NC(=O)N[C@@H](Cc1ccccc1)C(=O)O)C(=O)N[C@H](C=O)CCCNC(=N)N [ANTIPAIN]
- EC50 (SARS-CoV-2 [8]): 640 nM
- IC50 [9]: 3 nM
